Legend:
Format in all cases: in vivo
[1] = system: giant foxtail (Setaria faberi); experiment: Test G Pre-Emergence Protocol; conditions: Setaria faberi, pre-emergence, 312 h, evaluated after 13 days; for pest or weed control at 15.625 g/ha: 15.625 g ai/ha; for pest or weed control at 15.625 g/ha / pest or weed control at 250 g/ha: read-out: Foxtail, Giant damage rating (100=total damage to plant; 0=no damage to plant); for pest or weed control at 62.5 g/ha: 62.5 g ai/ha, 100=total damage to plant, 0=no damage to plant, read-out: Foxtail, Giant damage rating; for pest or weed control at 250 g/ha: 250 g ai/ha
Procedure, shortened: (§1)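 Herbicidal effect was rated 13 days post-application on a scale where 100 equals total damage. Spraying took place the day after sowing, using 15.625, 62.5 or 250 g/ha of compound in a 50:50 acetone/water solution with 0.5% Tween 20.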

[2] = system: velvetleaf (Abutilon theophrasti); experiment: Test G Pre-Emergence Protocol; conditions: Abutilon theophrasti, pre-emergence, 312 h, evaluated after 13 days; for pest or weed control at 15.625 g/ha: 15.625 g ai/ha; for pest or weed control at 15.625 g/ha / pest or weed control at 250 g/ha: read-out: Velvetleaf damage rating (100=total damage to plant; 0=no damage to plant); for pest or weed control at 62.5 g/ha: 62.5 g ai/ha, 100=total damage to plant, 0=no damage to plant, read-out: Velvetleaf damage rating; for pest or weed control at 250 g/ha: 250 g ai/ha
Procedure, shortened: as §1

[3] = system: redroot pigweed (Amaranthus retroflexus); experiment: Test G Pre-Emergence Protocol; conditions: Amaranthus retroflexus, pre-emergence, 312 h, evaluated after 13 days; for pest or weed control at 15.625 g/ha: 15.625 g ai/ha; for pest or weed control at 15.625 g/ha / pest or weed control at 250 g/ha: read-out: Pigweed, Redroot damage rating (100=total damage to plant; 0=no damage to plant); for pest or weed control at 62.5 g/ha: 62.5 g ai/ha, 100=total damage to plant, 0=no damage to plant, read-out: Pigweed, Redroot damage rating; for pest or weed control at 250 g/ha: 250 g ai/ha
Procedure, shortened: as §1

[4] = system: barnyardgrass (Echinochloa crus-galli); experiment: Test G Pre-Emergence Protocol; conditions: Echinochloa crus-galli, pre-emergence, 312 h, evaluated after 13 days; for pest or weed control at 15.625 g/ha: 15.625 g ai/ha; for pest or weed control at 15.625 g/ha / pest or weed control at 250 g/ha: read-out: Barnyardgrass damage rating (100=total damage to plant; 0=no damage to plant); for pest or weed control at 62.5 g/ha: 62.5 g ai/ha, 100=total damage to plant, 0=no damage to plant, read-out: Barnyardgrass damage rating; for pest or weed control at 250 g/ha: 250 g ai/ha
Procedure, shortened: as §1

[5] = system: corn (Zea mays); experiment: Test G Pre-Emergence Protocol; conditions: Zea mays, pre-emergence, 312 h, evaluated after 13 days; for plant injury at 15.625 g/ha: 15.625 g ai/ha; for plant injury at 15.625 g/ha / plant injury at 250 g/ha: read-out: Corn damage rating (100=total damage to plant; 0=no damage to plant); for plant injury at 62.5 g/ha: 62.5 g ai/ha, 100=total damage to plant, 0=no damage to plant, read-out: Corn damage rating; for plant injury at 250 g/ha: 250 g ai/ha
Procedure, shortened: as §1

[6] = system: ivy-leaved morning glory (Ipomoea hederacea); experiment: Test G Pre-Emergence Protocol; conditions: Ipomoea, pre-emergence, 312 h, evaluated after 13 days; for pest or weed control at 15.625 g/ha: 15.625 g ai/ha; for pest or weed control at 15.625 g/ha / pest or weed control at 250 g/ha: read-out: Morningglory, Ivy-leaved damage rating (100=total damage to plant; 0=no damage to plant); for pest or weed control at 62.5 g/ha: 62.5 g ai/ha, 100=total damage to plant, 0=no damage to plant, read-out: Morningglory, Ivy-leaved damage rating; for pest or weed control at 250 g/ha: 250 g ai/ha
Procedure, shortened: as §1

[7] = system: giant foxtail (Setaria faberi); experiment: Test G Post-Emergence Protocol; conditions: Setaria faberi, post-emergence, 312 h, read-out: Foxtail, Giant damage rating; for pest or weed control at 15.625 g/ha: 15.625 g ai/ha, evaluated after 13 days (100=total damage to plant; 0=no damage to plant); for pest or weed control at 62.5 g/ha: 62.5 g ai/ha
Procedure, shortened: (§2)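 Foliar application was made 8 days after sowing, using an aqueous spray of the active in acetone/water (50:50) with 0.5% Tween 20, at doses of 15.625, 62.5 or 250 g/ha. Injury was assessed 13 days later, where 100 meant the plant was fully damaged.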

[8] = system: velvetleaf (Abutilon theophrasti); experiment: Test G Post-Emergence Protocol; conditions: Abutilon theophrasti, post-emergence, 312 h, read-out: Velvetleaf damage rating; for pest or weed control at 15.625 g/ha: 15.625 g ai/ha, evaluated after 13 days (100=total damage to plant; 0=no damage to plant); for pest or weed control at 62.5 g/ha: 62.5 g ai/ha; for pest or weed control at 62.5 g/ha / pest or weed control at 250 g/ha: evaluated after 13 days, 100=total damage to plant, 0=no damage to plant; for pest or weed control at 250 g/ha: 250 g ai/ha
Procedure, shortened: as §2

[9] = system: redroot pigweed (Amaranthus retroflexus); experiment: Test G Post-Emergence Protocol; conditions: Amaranthus retroflexus, post-emergence, 312 h, read-out: Pigweed, Redroot damage rating; for pest or weed control at 15.625 g/ha: 15.625 g ai/ha, evaluated after 13 days (100=total damage to plant; 0=no damage to plant); for pest or weed control at 62.5 g/ha: 62.5 g ai/ha; for pest or weed control at 62.5 g/ha / pest or weed control at 250 g/ha: evaluated after 13 days, 100=total damage to plant, 0=no damage to plant; for pest or weed control at 250 g/ha: 250 g ai/ha
Procedure, shortened: as §2

[10] = system: barnyardgrass (Echinochloa crus-galli); experiment: Test G Post-Emergence Protocol; conditions: Echinochloa crus-galli, post-emergence, 312 h, read-out: Barnyardgrass damage rating; for pest or weed control at 15.625 g/ha: 15.625 g ai/ha, evaluated after 13 days (100=total damage to plant; 0=no damage to plant); for pest or weed control at 62.5 g/ha: 62.5 g ai/ha; for pest or weed control at 62.5 g/ha / pest or weed control at 250 g/ha: evaluated after 13 days, 100=total damage to plant, 0=no damage to plant; for pest or weed control at 250 g/ha: 250 g ai/ha
Procedure, shortened: as §2

[11] = system: corn (Zea mays); experiment: Test G Post-Emergence Protocol; conditions: Zea mays, post-emergence, 312 h, read-out: Corn damage rating; for plant injury at 15.625 g/ha: 15.625 g ai/ha, evaluated after 13 days (100=total damage to plant; 0=no damage to plant); for plant injury at 62.5 g/ha: 62.5 g ai/ha; for plant injury at 62.5 g/ha / plant injury at 250 g/ha: evaluated after 13 days, 100=total damage to plant, 0=no damage to plant; for plant injury at 250 g/ha: 250 g ai/ha
Procedure, shortened: as §2

[12] = system: ivy-leaved morning glory (Ipomoea hederacea); experiment: Test G Post-Emergence Protocol; conditions: Ipomoea, post-emergence, 312 h, read-out: Morningglory, Ivy-leaved damage rating; for pest or weed control at 15.625 g/ha: 15.625 g ai/ha, evaluated after 13 days (100=total damage to plant; 0=no damage to plant); for pest or weed control at 62.5 g/ha: 62.5 g ai/ha; for pest or weed control at 62.5 g/ha / pest or weed control at 250 g/ha: evaluated after 13 days, 100=total damage to plant, 0=no damage to plant; for pest or weed control at 250 g/ha: 250 g ai/ha
Procedure, shortened: as §2

[13] = evaluated after 13 days, 100=total damage to plant, 0=no damage to plant

Structure (SMILES) | pest or weed control at 15.625 g/ha [1] [%] | pest or weed control at 62.5 g/ha [1] [%] | pest or weed control at 250 g/ha [1] [%] | pest or weed control at 15.625 g/ha [2] [%] | pest or weed control at 62.5 g/ha [2] [%] | pest or weed control at 250 g/ha [2] [%] | pest or weed control at 15.625 g/ha [3] [%] | pest or weed control at 62.5 g/ha [3] [%] | pest or weed control at 250 g/ha [3] [%] | pest or weed control at 15.625 g/ha [4] [%] | pest or weed control at 62.5 g/ha [4] [%] | pest or weed control at 250 g/ha [4] [%] | plant injury at 15.625 g/ha [5] [%] | plant injury at 62.5 g/ha [5] [%] | plant injury at 250 g/ha [5] [%] | pest or weed control at 15.625 g/ha [6] [%] | pest or weed control at 62.5 g/ha [6] [%] | pest or weed control at 250 g/ha [6] [%] | pest or weed control at 15.625 g/ha [7] [%] | pest or weed control at 62.5 g/ha [7, 13] [%] | other results
CN1CC(C2CCN=C(C(C)(C)C)N2)C(C(=O)Nc2ccc(F)c(F)c2F)C1=O (centres unmarked) [Compound 1771] | 0 | 0 | 0 | 0 | 0 | 0 | 0 | 0 | 0 | 0 | 0 | 0 | 0 | 0 | 0 | 0 | 0 | 0 | 0 | 0 | pest or weed control at 15.625 g/ha [8]: 0%; pest or weed control at 62.5 g/ha [8]: 0%; pest or weed control at 250 g/ha [8]: 0%; pest or weed control at 15.625 g/ha [9]: 0%; pest or weed control at 62.5 g/ha [9]: 0%; pest or weed control at 250 g/ha [9]: 0%; pest or weed control at 15.625 g/ha [10]: 0%; pest or weed control at 62.5 g/ha [10]: 0%; pest or weed control at 250 g/ha [10]: 0%; plant injury at 15.625 g/ha [11]: 0%; plant injury at 62.5 g/ha [11]: 0%; plant injury at 250 g/ha [11]: 0%; pest or weed control at 15.625 g/ha [12]: 0%; pest or weed control at 62.5 g/ha [12]: 0%; pest or weed control at 250 g/ha [12]: 0%
CN1C[C@H](c2ccc(Cl)cc2)[C@@H](C(=O)Nc2ccc(F)nc2F)C1=O [Compound 1811] | 90 | 90 | 90 | 10 | 50 | 70 | 30 | 70 | 80 | 80 | 90 | 90 | 0 | 70 | 80 | 0 | 20 | 80 | 80 | 80 | pest or weed control at 250 g/ha ([7]; 250 g ai/ha, evaluated after 13 days, 100=total damage to plant, 0=no damage to plant): 80%; pest or weed control at 15.625 g/ha [8]: 10%; pest or weed control at 62.5 g/ha [8]: 30%; pest or weed control at 250 g/ha [8]: 50%; pest or weed control at 15.625 g/ha [9]: 20%; pest or weed control at 62.5 g/ha [9]: 60%; pest or weed control at 250 g/ha [9]: 80%; pest or weed control at 15.625 g/ha [10]: 80%; pest or weed control at 62.5 g/ha [10]: 80%; pest or weed control at 250 g/ha [10]: 80%; plant injury at 15.625 g/ha [11]: 40%; plant injury at 62.5 g/ha [11]: 60%; plant injury at 250 g/ha [11]: 80%; pest or weed control at 15.625 g/ha [12]: 40%; pest or weed control at 62.5 g/ha [12]: 20%; pest or weed control at 250 g/ha [12]: 70%
